Legend:
[1] = tested on: redroot pigweed; test: Test Example 4: herbicidal effect by soil treatment (Table 19, symbol N); format: in vivo, redroot pigweed (Amaranthus retroflexus); conditions: amount of applied herbicide 320 g/ha
Method in brief: (§1)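 Soil-surface application: an emulsion agent diluted with water to the predetermined dose is sprayed uniformly over seeds lying under roughly 1.5 cm of sterilized diluvial soil. Boxes stay in a greenhouse at 25° C. to 30° C. Three weeks later, each species is graded on previously defined criteria.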

[2] = tested on: velvetleaf; test: Test Example 5: herbicidal effect by foliage application, plastic box (Table 20, symbol M); format: in vivo, velvetleaf (Abutilon theophrasti)
Method in brief: (§2)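 Sow seeds spot-wise in sterilized diluvial soil; cover with ~1.5 cm soil. Grow 14 days in greenhouse, 25° C. to 30° C. Spray foliage with emulsion diluted to predetermined amount. Rate effect after 3 weeks.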

[3] = tested on: persian speedwell; test: Test Example 4: herbicidal effect by soil treatment (Table 19, symbol R); format: in vivo, Persian speedwell (Veronica persica); conditions: amount of applied herbicide 320 g/ha
Method in brief: as §1

[4] = tested on: southern crabgrass; test: Test Example 4: herbicidal effect by soil treatment (Table 19, symbol F); format: in vivo, southern crabgrass (Digitaria ciliaris); conditions: amount of applied herbicide 320 g/ha
Method in brief: as §1

[5] = tested on: barnyard grass; test: Test Example 5: herbicidal effect by foliage application, plastic box (Table 20, symbol H); format: in vivo, barnyard grass (Echinochloa crus-galli)
Method in brief: as §2

[6] = tested on: velvetleaf; test: Test Example 4: herbicidal effect by soil treatment (Table 19, symbol M); format: in vivo, velvetleaf (Abutilon theophrasti); conditions: amount of applied herbicide 320 g/ha
Method in brief: as §1

[7] = tested on: lambsquarters; test: Test Example 5: herbicidal effect by foliage application, plastic box (Table 20, symbol O); format: in vivo, lambsquarters (Chenopodium album)
Method in brief: as §2

[8] = tested on: wild oat; test: Test Example 5: herbicidal effect by foliage application, plastic box (Table 20, symbol I); format: in vivo, wild oat (Avena fatua)
Method in brief: as §2

[9] = tested on: barnyard grass; test: Test Example 3: herbicidal effect by foliage application, Wagner pot (Table 18, symbol H); format: in vivo, barnyard grass (Echinochloa crus-galli); conditions: 320 g/ha
Method in brief: (§3)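 Plants were sown in alluvial soil held under 0.1–0.5 cm standing water and grown 14 days in a greenhouse at 25–30 °C. An emulsifiable formulation, water-diluted to the set dose, was then sprayed onto the foliage, and effects were scored three weeks later using previously defined criteria.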

[10] = tested on: false cleavers; test: Test Example 5: herbicidal effect by foliage application, plastic box (Table 20, symbol Q); format: in vivo, false cleavers (Galium spurium)
Method in brief: as §2

[11] = tested on: persian speedwell; test: Test Example 5: herbicidal effect by foliage application, plastic box (Table 20, symbol R); format: in vivo, Persian speedwell (Veronica persica)
Method in brief: as §2

[12] = tested on: Japanese bulrush; test: Test Example 1: herbicidal activity, application before weed generation under submerged conditions (Table 16, symbol B); format: in vivo, Japanese bulrush (Schoenoplectus juncoides); conditions: amount of applied herbicide 320 g/ha
Method in brief: (§4)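 Alluvial soil was flooded to 4 cm depth, weed seeds were sown mixed and 2.5-leaf rice seedlings were transplanted. On sowing day, the compound's emulsion, diluted in water to a set dose, was applied to the water surface. Plants grew at 25–30 °C and were scored 0–5 after three weeks.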

[13] = tested on: lambsquarters; test: Test Example 4: herbicidal effect by soil treatment (Table 19, symbol O); format: in vivo, lambsquarters (Chenopodium album); conditions: amount of applied herbicide 320 g/ha
Method in brief: as §1

[14] = tested on: blackgrass; test: Test Example 5: herbicidal effect by foliage application, plastic box (Table 20, symbol J); format: in vivo, blackgrass (Alopecurus myosuroides)
Method in brief: as §2

[15] = tested on: Italian ryegrass; test: Test Example 5: herbicidal effect by foliage application, plastic box (Table 20, symbol K); format: in vivo, Italian ryegrass (Lolium multiflorum)
Method in brief: as §2

[16] = tested on: green foxtail; test: Test Example 5: herbicidal effect by foliage application, plastic box (Table 20, symbol G); format: in vivo, green foxtail (Setaria viridis)
Method in brief: as §2

[17] = tested on: redroot pigweed; test: Test Example 5: herbicidal effect by foliage application, plastic box (Table 20, symbol N); format: in vivo, redroot pigweed (Amaranthus retroflexus)
Method in brief: as §2

[18] = tested on: late watergrass; test: Test Example 1: herbicidal activity, application before weed generation under submerged conditions (Table 16, symbol A); format: in vivo, late watergrass (Echinochloa oryzicola); conditions: amount of applied herbicide 320 g/ha
Method in brief: as §4

[19] = tested on: Chinese sprangletop; test: Test Example 3: herbicidal effect by foliage application, Wagner pot (Table 18, symbol D); format: in vivo, chinese sprangletop (Leptochloa chinensis); conditions: 320 g/ha
Method in brief: as §3

[20] = tested on: wild oat; test: Test Example 4: herbicidal effect by soil treatment (Table 19, symbol I); format: in vivo, wild oat (Avena fatua); conditions: amount of applied herbicide 320 g/ha
Method in brief: as §1

[21] = tested on: chickweed; test: Test Example 5: herbicidal effect by foliage application, plastic box (Table 20, symbol P); format: in vivo, common chickweed (Stellaria media)
Method in brief: as §2

[22] = tested on: Italian ryegrass; test: Test Example 4: herbicidal effect by soil treatment (Table 19, symbol K); format: in vivo, Italian ryegrass (Lolium multiflorum); conditions: amount of applied herbicide 320 g/ha
Method in brief: as §1

[23] = tested on: windgrass; test: Test Example 4: herbicidal effect by soil treatment (Table 19, symbol L); format: in vivo, windgrass (Apera spica-venti); conditions: amount of applied herbicide 320 g/ha
Method in brief: as §1

[24] = tested on: windgrass; test: Test Example 5: herbicidal effect by foliage application, plastic box (Table 20, symbol L); format: in vivo, windgrass (Apera spica-venti)
Method in brief: as §2

[25] = tested on: rice flat sedge; test: Test Example 3: herbicidal effect by foliage application, Wagner pot (Table 18, symbol E); format: in vivo, rice flat sedge (Cyperus iria); conditions: 320 g/ha
Method in brief: as §3

[26] = tested on: oval-leafed pondweed; test: Test Example 1: herbicidal activity, application before weed generation under submerged conditions (Table 16, symbol C); format: in vivo, oval-leafed pondweed (Monochoria vaginalis); conditions: amount of applied herbicide 320 g/ha
Method in brief: as §4

[27] = tested on: green foxtail; test: Test Example 4: herbicidal effect by soil treatment (Table 19, symbol G); format: in vivo, green foxtail (Setaria viridis); conditions: amount of applied herbicide 320 g/ha
Method in brief: as §1

[28] = tested on: blackgrass; test: Test Example 4: herbicidal effect by soil treatment (Table 19, symbol J); format: in vivo, blackgrass (Alopecurus myosuroides); conditions: amount of applied herbicide 320 g/ha
Method in brief: as §1

[29] = tested on: barnyard grass; test: Test Example 4: herbicidal effect by soil treatment (Table 19, symbol H); format: in vivo, barnyard grass (Echinochloa crus-galli); conditions: amount of applied herbicide 320 g/ha
Method in brief: as §1

[30] = tested on: chickweed; test: Test Example 4: herbicidal effect by soil treatment (Table 19, symbol P); format: in vivo, common chickweed (Stellaria media); conditions: amount of applied herbicide 320 g/ha
Method in brief: as §1

[31] = tested on: southern crabgrass; test: Test Example 5: herbicidal effect by foliage application, plastic box (Table 20, symbol F); format: in vivo, southern crabgrass (Digitaria ciliaris)
Method in brief: as §2

[32] = foliage application, 320 g/ha, three weeks after application
[33] = amount of applied herbicide 320 g/ha, foliage application after 14-day growth, evaluated three weeks after application

Compound | N: redroot pigweed, herbicidal effect grade [1] | R: persian speedwell, herbicidal effect grade [3] | F: southern crabgrass, herbicidal effect grade [4] | M: velvetleaf, herbicidal effect grade [6] | herbicidal effect on barnyard grass (H) [9] | Herbicidal effect, B: Japanese bulrush [12] | O: lambsquarters, herbicidal effect grade [13] | Herbicidal effect, A: late watergrass [18] | herbicidal effect on Chinese sprangletop (D) [19] | I: wild oat, herbicidal effect grade [20] | K: Italian ryegrass, herbicidal effect grade [22] | L: windgrass, herbicidal effect grade [23] | herbicidal effect on rice flat sedge (E) [25] | Herbicidal effect, C: oval-leafed pondweed [26] | G: green foxtail, herbicidal effect grade [27] | J: blackgrass, herbicidal effect grade [28] | H: barnyard grass, herbicidal effect grade [29] | P: chickweed, herbicidal effect grade [30] | also measured
CCOc1ccccc1-c1sc2cc(OCc3ccccc3)ccc2c1-c1c(O)c(C)nn(C)c1=O [3-119] | 3 (Herbicidal rate of 40% or more and less than 70%) | 5 (Herbicidal rate of 90% or more (almost completely withered)) | 4 (Herbicidal rate of 70% or more and less than 90%) | 0 (Herbicidal rate of 5% or less (almost no effect)) | 4 (Herbicidal rate of 70% or more and less than 90%) | 3 (Herbicidal rate of 40% or more and less than 70%) | 3 (Herbicidal rate of 40% or more and less than 70%) | 3 (Herbicidal rate of 40% or more and less than 70%) | 4 (Herbicidal rate of 70% or more and less than 90%) | 0 (Herbicidal rate of 5% or less (almost no effect)) | 0 (Herbicidal rate of 5% or less (almost no effect)) | 0 (Herbicidal rate of 5% or less (almost no effect)) | 5 (Herbicidal rate of 90% or more (almost completely withered)) | 3 (Herbicidal rate of 40% or more and less than 70%) | 3 (Herbicidal rate of 40% or more and less than 70%) | 0 (Herbicidal rate of 5% or less (almost no effect)) | 0 (Herbicidal rate of 5% or less (almost no effect)) | 0 (Herbicidal rate of 5% or less (almost no effect)) | M: velvetleaf, herbicidal effect grade [2, 32]: 4 (Herbicidal rate of 70% or more and less than 90%); H: barnyard grass, herbicidal effect grade [5, 32]: 3 (Herbicidal rate of 40% or more and less than 70%); O: lambsquarters, herbicidal effect grade [7, 32]: 5 (Herbicidal rate of 90% or more (almost completely withered)); I: wild oat, herbicidal effect grade [8, 32]: 1 (Herbicidal rate of 5% or more and less than 20%); Q: false cleavers, herbicidal effect grade [10, 32]: 5 (Herbicidal rate of 90% or more (almost completely withered)); R: persian speedwell, herbicidal effect grade [11, 32]: 5 (Herbicidal rate of 90% or more (almost completely withered)); J: blackgrass, herbicidal effect grade [14, 32]: 0 (Herbicidal rate of 5% or less (almost no effect)); K: Italian ryegrass, herbicidal effect grade [15, 32]: 1 (Herbicidal rate of 5% or more and less than 20%); G: green foxtail, herbicidal effect grade [16, 32]: 5 (Herbicidal rate of 90% or more (almost completely withered)); N: redroot pigweed, herbicidal effect grade [17, 32]: 5 (Herbicidal rate of 90% or more (almost completely withered)); P: chickweed, herbicidal effect grade [21, 32]: 5 (Herbicidal rate of 90% or more (almost completely withered)); L: windgrass, herbicidal effect grade [24, 32]: 4 (Herbicidal rate of 70% or more and less than 90%); F: southern crabgrass, herbicidal effect grade [31, 32]: 5 (Herbicidal rate of 90% or more (almost completely withered))
CCCC(=O)Oc1c(C)nn(C)c(=O)c1-c1c(-c2ccc(C)cc2)sc2cc(F)c(F)cc12 [5-004] | 3 (Herbicidal rate of 40% or more and less than 70%) | 0 (Herbicidal rate of 5% or less (almost no effect)) | 0 (Herbicidal rate of 5% or less (almost no effect)) | 0 (Herbicidal rate of 5% or less (almost no effect)) | 3 (Herbicidal rate of 40% or more and less than 70%) | 3 (Herbicidal rate of 40% or more and less than 70%) | 4 (Herbicidal rate of 70% or more and less than 90%) | 2 (Herbicidal rate of 20% or more and less than 40%) | 0 (Herbicidal rate of 5% or less (almost no effect)) | 0 (Herbicidal rate of 5% or less (almost no effect)) | 0 (Herbicidal rate of 5% or less (almost no effect)) | 0 (Herbicidal rate of 5% or less (almost no effect)) | 0 (Herbicidal rate of 5% or less (almost no effect)) | 0 (Herbicidal rate of 5% or less (almost no effect)) | 0 (Herbicidal rate of 5% or less (almost no effect)) | 0 (Herbicidal rate of 5% or less (almost no effect)) | 0 (Herbicidal rate of 5% or less (almost no effect)) | 0 (Herbicidal rate of 5% or less (almost no effect)) | Herbicidal effect by foliage application, M: velvetleaf [2, 33]: 3 (Herbicidal rate of 40% or more and less than 70%); Herbicidal effect by foliage application, H: barnyard grass [5, 33]: 0 (Herbicidal rate of 5% or less (almost no effect)); Herbicidal effect by foliage application, O: lambsquarters [7, 33]: 4 (Herbicidal rate of 70% or more and less than 90%); Herbicidal effect by foliage application, I: wild oat [8, 33]: 0 (Herbicidal rate of 5% or less (almost no effect)); Herbicidal effect by foliage application, Q: false cleavers [10, 33]: 0 (Herbicidal rate of 5% or less (almost no effect)); Herbicidal effect by foliage application, R: persian speedwell [11, 33]: 3 (Herbicidal rate of 40% or more and less than 70%); Herbicidal effect by foliage application, J: blackgrass [14, 33]: 0 (Herbicidal rate of 5% or less (almost no effect)); Herbicidal effect by foliage application, K: Italian ryegrass [15, 33]: 1 (Herbicidal rate of 5% or more and less than 20%); Herbicidal effect by foliage application, G: green foxtail [16, 33]: 3 (Herbicidal rate of 40% or more and less than 70%); Herbicidal effect by foliage application, N: redroot pigweed [17, 33]: 2 (Herbicidal rate of 20% or more and less than 40%); Herbicidal effect by foliage application, P: chickweed [21, 33]: 3 (Herbicidal rate of 40% or more and less than 70%); Herbicidal effect by foliage application, L: windgrass [24, 33]: 1 (Herbicidal rate of 5% or more and less than 20%); Herbicidal effect by foliage application, F: southern crabgrass [31, 33]: 0 (Herbicidal rate of 5% or less (almost no effect))
